Reference: patent US4976960A, “Food supplements” (Bar Ilan University, priority 1986, dated 1990)
Where “and” joins values, the source holds several entries; their conditions need not be identical. Equal values may be shown once.

How the values were obtained:
[1] = test system: peroxide level in the skin; assay: Malondialdehyde (MDA) level in epidermis of UV-irradiated hairless mice; type: in vivo, hairless mice (SKH/Hr); conditions: for % decrease in MDA, mean / MDA, Treated Irradiated Site, mean / % decrease in MDA / MDA, Treated Irradiated Site: 5% in ethanol
Source text: In this experiment, alpha-tocopheryl acetate and the present antioxidant were applied to the skin of hairless mice and the level of peroxide in the skin after exposure to UV radiation compared to a control group. The detailed procedure was as follows.
The malondialdehyde (MDA) assay is based on the methods of Dixit et al [J. Invest. Derm., 81: 369-75 (1983)], Tappel and Summerfield ["Measurement of and protection from in vivo lipid peroxidation", Free Radicals in Biology Vol. IV (1980). Academic Press, New York (W. A. Pryor, ed.)] and Placer et al [Analytical Biochemistry, 16:359-64 (1966)].
6-8week old hairless mice [(SKH/Hr); Skin and Cancer Hospital, Temple University, Philadelphia] were anesthetized using a 1:10 dilution of Sodium Pentobarbital (50 mg./ml., Elkins-Sinn. Inc.). The UV light sources were 2 fluorescent lamps (Westinghouse PS-40) and light intensity was measured with an Optometer (United Detector Technology) using a UVB filter. The tissue was homogenized using a Heat Systems model W-10 Sonicator, filtration and centrifugation of the homogenates being effected through a 2.5 micron Millipore filter and a Sorvall RC-5 Speed Centrifuge, respectively. The buffer consisted of 0.1M potassium phosphate, pH 7.4 with 10^-4 M magnesium chloride.
The protein assay is based on the method given in Clinical Chemistry, 23: 908 (1977). The modified biuret reagent contains per liter 3.8 g. CuSO4, 6.7 g. EDTA, 17.5 g. glycine, 14.0 g. NaCI and 40.0 g. NaOH. Absorbance was measured on an MS-2 Spectrophotometer (Micromedic Systems, Inc.).
20 mice were anesthetized with Sodium Pentobarbital (0.5 mg./10 g. body weight). Two rectangular areas, 6.25 cm.^2 each, were outlined on the dorsal and ventral sides of each mouse. The dorsal areas were designated as left dorsal (site A) and right dorsal (site B). The ventral areas were designated as left ventral (site C) and right ventral (site D). The products were applied in an aliquot of 75 ul. to the designated sites. The application protocol was randomized so that a given treatment was not restricted to the same area of the skin. One site on each dorsal and ventral side remained untreated to serve as the irradiated controls. 15 minutes after product application, the mice were exposed to 110 millijoules of UV light per cm.^2 of skin area over a period of 220 seconds per side. The mice were placed so that the area to be irradiated was directly under the light source while the areas on the other side were protected from the radiation. The mice were irradiated on both the dorsal and ventral sides. After UV treatment, the mice were returned to separate cages to recover from the anesthesia.
4 hours after irradiation, the mice were sacrificed by cervical dislocation. The skin was removed and stretched over a styrofoam block. The epidermis was separated from the dermis by heating the skin in a water bath for 60 seconds at 54° C. and then scraping the surface with a scalpel. Each 6.25 cm. area of epidermis was placed in a separate 1.5 ml. Eppendorf vial with 200 ul. of buffer. The pieces of epidermis were homogenized by sonication for 2×30 seconds, with a 10 second pause between each 30 second period to prevent heat buildup. The vial was kept in an ice bath.
After homogenization, 1 ml. of buffer was added to each vial and vortexed. The homogenate was filtered through a 2.5 micron filter, twice. An aliquot containing 1.4-1.8 mg. of homogenate protein was placed into test tubes with 0.6 ml. 10% trichloroacetic acid and 1.2 ml. 0.5% (w/v) 2-thiobarbituric acid. The test tube mixture was well vortexed and then placed in a boiling water bath for 10 minutes, the top of the test tube being covered with a marble which acted as a condensor. The tubes were cooled with running tap water and centrifuged for 15 minutes at 30,000×g. Blanks were prepared by placing 0.1M phosphate buffer in test tubes. All assays were done in duplicate. […]

peroxides in the skin = assay: Peroxide level in skin of adult mice (TBA test), topical application; type: in vivo; conditions: 0.1% in Oil of Olay
Source text: Samples of lotions and appropriate controls were applied to mice or rat skin for a fixed period. The application was done once a day. Experiments were terminated by killing the animal, peeling the skin and freezing it in liquid nitrogen. Samples of the frozen skin were homogenized in 0.2M phosphate buffer, pH 6.5. After centrifugation, the supernatant was collected and analyzed for the peroxide value using the TBA (thiobarbituric acid) test as described by Sinnhuber et al, Food Res. 23:620 (1958).
In these experiments adult mice (2 months old) were treated as described in Example 2. The grown mice were shaved before applying the lotions to the skin. In this experiment the antioxidant was dissolved in Oil of Olay. Mice were sacrificed after 21 days.

prostacyclin (PGI2) = assay: Endogenous release of prostacyclin by isolated aorta segments of fed rabbits; type: in vivo; conditions: after 30 days, vs basal vitamin E deficient diet
Fibroblasts = assay: Lipid peroxidation in fibroblast culture, TBA assay; type: cell-based; conditions: 0.01%, 3 days of incubation, 37° C.
Protocol: The possibility that the present antioxidant may serve as a substitute for vitamin E was also tested in tissue culture. Fibroblasts were grown in an appropriate medium for three days at a temperature of 37° C., (a) in absence of additive (control), (b) in presence of 0.01% vitamin E, and (c) in presence of 0.01% present (crude) antioxidant.

pyruvate oxidase = assay: Pyruvate oxidase activity in rabbits fed supplemented vitamin E deficient diet; type: in vivo; conditions: after 30 days, vs basal vitamin E deficient diet
[2] = test system: liver microsomal NADPH oxidase; assay: Liver microsomal NADPH oxidase activity in rabbits fed supplemented vitamin E deficient diet; type: in vivo; conditions: after 30 days, vs basal vitamin E deficient diet
[3] = combined dorsal and ventral mean
[4] = ventral, individual samples 6-10

Compound: CC(=O)Oc1c(C)c(C)c2c(c1C)CCC(C)(CCC[C@H](C)CCC[C@H](C)CCCC(C)C)O2 (stereo partly drawn) [alp. tocopheryl acetate, alpha-tocopheryl acetate]
- effectiveness in reducing the level of peroxides in the skin ([1]; 1% antioxidant in Oil of Olay vs 5% alpha-tocopheryl acetate in ethanol): significantly less effective
- % decrease in MDA, mean [1, 3]: 27.82%
- MDA, Treated Irradiated Site, mean [1, 3]: 0.168 nM MDA/mg. protein
- % decrease in MDA, mean ([1]; dorsal mean): 27.26%
- MDA, Treated Irradiated Site, mean ([1]; dorsal mean): 0.165 nM MDA/mg. protein
- % decrease in MDA ([1]; dorsal, individual samples 1-5): 34.78% and 39.77% and 22.92% and 12.75% and 26.10%
- MDA, Treated Irradiated Site ([1]; dorsal, individual samples 1-5): 0.105 nM MDA/mg. protein and 0.103 nM MDA/mg. protein and 0.074 nM MDA/mg. protein and 0.308 nM MDA/mg. protein and 0.235 nM MDA/mg. protein
- % decrease in MDA, mean ([1]; ventral mean): 28.38%
- MDA, Treated Irradiated Site, mean ([1]; ventral mean): 0.172 nM MDA/mg. protein
- % decrease in MDA [1, 4]: 42.41% and 28.95% and 23.17% and 22.39% and 25.00%
- MDA, Treated Irradiated Site [1, 4]: 0.148 nM MDA/mg. protein and 0.189 nM MDA/mg. protein and 0.305 nM MDA/mg. protein and 0.027 nM MDA/mg. protein

Compound: Cc1c(C)c2c(c(C)c1O)CCC(C)(CCCC(C)CCCC(C)CCCC(C)C)O2 (stereo not drawn) [alpha tocopherol]
- effect on the level of peroxides in the skin (peroxides in the skin): no reduction of the level of peroxides was observed

Compound: vitamin E
- endogenous release of prostacyclin (PGI2), detected as 6-keto-PGF1-alpha (prostacyclin (PGI2)): significantly increased
- Peroxide value (TBA assay) (Fibroblasts): 0.015
- pyruvate oxidase activity (enzymatic lipid peroxidation) (pyruvate oxidase): decreased
- liver microsomal NADPH oxidase activity (enzymatic lipid peroxidation) [2]: decreased

Compound: COc1ccc(O)c(C(C)(C)C)c1 [BHA, butylated hydroxy anisole]
- effect on the level of peroxides in the skin (peroxides in the skin): no reduction of the level of peroxides was observed

Compound: Cc1cc(C(C)(C)C)c(O)c(C(C)(C)C)c1 [BHT, butylated hydroxy toluene]
- effect on the level of peroxides in the skin (peroxides in the skin): no reduction of the level of peroxides was observed
